Test results as given in patent US20210315826A1, “NATURAL FLUORESCENT POLYDEDRAL AMINO ACID CRYSTALS FOR EFFICIENT ENTRAPMENT AND SYSTEMIC DELIVERY OF HYDROPHOBIC SMALL MOLECULES” (CORNELL UNIVERSITY, priority 2018, published 2021).

Assay: Entrapment efficiency of small molecules in L-His crystals (HPLC of supernatant)
Assay type: physicochemical
Conditions: within L-His crystals; determined by HPLC
Protocol: A 30 mg/mL solution of L-His (>99%, Sigma-Aldrich) was prepared by dissolving L-His powder in milli-Q water using a vortex mixer at ambient temperature in a Corning® 15 mL centrifuge tube with a closed cap. Then 500 μL of the aqueous solution of L-His and 500 μL of 200 proof ethanol (KOPTEC, PA, US) was added to 200 μL of the small molecule solution (2 mg/mL). The small molecules used in this study were Nile red (>98%, Sigma-Aldrich), pyrene (>98%, Sigma-Aldrich), β-carotene (>97%, Sigma-Aldrich), and doxorubicin HCl (DOX, >98%, Fluka, Mexico City, Mexico). The solution was vortexed for 15 seconds and kept static at ambient temperature. After 3 hours, crystals were collected and washed with ethanol to remove the free small molecules from the surface of the crystals and the supernatant was collected to measure the concentration of non-entrapped small molecules using HPLC. […] Each individual sample of small molecules was quantified based on an optimized method reported in the literature for β-carotene (Etzbach et al., “Characterization of Carotenoid Profiles in Goldenberry (Physalis peruviana L.) Fruits at Various Ripening Stages and in Different Plant Tissues by HPLC-DAD-APCI-MS^n,” Food Chem. 245:508-517 (2018), which is hereby incorporated by reference in its entirety), Nile red (Wu et al., “Drug Delivery to the Skin from Sub-Micron Polymeric Particle Formulations: Influence of Particle Size and Polymer Hydrophobicity,” Pharm Res. 26(8):1995-2001 (2009), which is hereby incorporated by reference in its entirety), pyrene (Jia et al., “Effect of Root Exudates on the Mobility of Pyrene in Mangrove Sediment-Water System,” Catena 162:396-401 (2017), which is hereby incorporated by reference in its entirety), and DOX (Chi et al., “Redox-Sensitive and Hyaluronic Acid Functionalized Liposomes for Cytoplasmic Drug Delivery to Osteosarcoma in Animal Models,” J. Control Release 261:113-125 (2017), which is hereby incorporated by reference in its entirety). […]

Entrapment efficiency | SMILES
62% | CCN(CC)c1ccc2nc3c4ccccc4c(=O)cc-3oc2c1 [Nile red]
~96% | CC1=C(/C=C/C(C)=C/C=C/C(C)=C/C=C/C=C(C)/C=C/C=C(C)/C=C/C2=C(C)CCCC2(C)C)C(C)(C)CCC1 [β-carotene]

SMILES | Entrapment efficiency
c1cc2ccc3cccc4ccc(c1)c2c34 [pyrene] | 87%
